Source: US20120202892A1, “Cannabinoid-Containing Compositions and Methods for Their Use” (University of Kentucky Research Foundation, priority 2008, published 2012)
Where “and” joins values, the source holds several entries; their conditions need not be identical. Equal entries are not always repeated. Entries after “also recorded” stand apart in the source; their conditions may differ. Where two headings read alike, the source gives them in different places. Marks after values point to notes of the source that are not given here.

Assays:
[1] = system: CFA-induced knee joint inflammation; experiment: Knee joint circumference in CFA mono-arthritic rats; type: in vivo, Sprague-Dawley rats
[2] = system: CFA-induced knee joint inflammation; experiment: Knee joint temperature in CFA mono-arthritic rats; type: in vivo, Sprague-Dawley rats
[3] = system: CFA-induced mono-arthritis pain; experiment: Pain-related posture (spontaneous pain rating score 0-5); type: in vivo, Sprague-Dawley rats; details: after CFA, before CBD gel
Source text: The abnormal posture of the affected hind limb of each animal was assigned a single score using a subjective pain-related behavioral scale (spontaneous pain rating score 0-5), i.e. 0—normal; 1—curling of the toes, 2—eversion of the paw; 3—partial weight bearing; 4—non-weight bearing and guarding; and 5—avoidance of any contact with the hindlimb (Sluka et al. (1994) Neuroreport 5:109-112).
Baseline parameters (body weight, knee joint temperature, and knee joint circumference) were obtained before the knee injection of rats with CFA. PWL test and exploratory activity testing were also conducted prior to CFA injection. Rats were anesthetized with a short term anesthetic and the left knee joint, cavity was injected with CFA for induction of mono-arthritis. On day 3, the back of each animal was shaved. […] Rats received daily treatments for four consecutive days of either vehicle gel, or CBD gel. Gel was applied to the skin in a templated region on the dorsal surface of the rat and rubbed into the skin for 30 sec to ensure complete coverage. The nitrile template was used to ensure specific area reproducibility. […] Exploratory activity was monitored prior to initial gel application and on the third day post gel application (after 6 h). […] Blood samples were obtained for CBD plasma quantification, and tissues (knee joints, dorsal root ganglia, spinal cord, brain) were collected after perfusion. […]

[4] = system: CFA-induced mono-arthritis, secondary thermal hyperalgesia; experiment: Secondary thermal hyperalgesia, paw withdrawal latency (PWL) test; type: in vivo, Sprague-Dawley rats; details: for Paw withdrawal latency (PWL), own baseline score: baseline before CFA and CBD
Description: Secondary thermal hyperalgesia was assessed with the paw withdrawal latency (PWL) test (Hargreaves et al. (1988) Pain 32: 77-88). PWLs were measured in response to a radiant heat source shone on one hind paw of the animals from beneath a glass top table. A shortened PWL response in animals with knee joint inflammation was indicative of secondary thermal hyperalgesia. Animals were placed in separate plastic cubicles (4×4×10 in) on a glass top table (2 mm thickness of glass) and allowed to adapt to their new environment for 20-30 min before testing. A small movable metal box that focused a high-intensity light beam through an aperture (0.5 cm×0.5 cm) was attached to an on/off switch and a digital timer. The light beam was applied to the plantar surface of the hind paw through the glass until the rat lifted its paw. At that time, the light is switched off and the number of seconds on the digital timer recorded as the PWL (sec). The maximal cut off time for the paw-withdrawal reflex was set to 15 sec (55° C.). […] Both hind paws were tested independently for 5 trials per side with 5-minute intervals between trials. A mean of the 5 trials was calculated for each animal. The PWL tests were performed before knee joint injection as a baseline and 5 times after the CFA injection beginning on day 3 (days 3-7). The examiner was blind from the treatment group of animals.
(§1) Baseline parameters (body weight, knee joint temperature, and knee joint circumference) were obtained before the knee injection of rats with CFA. PWL test and exploratory activity testing were also conducted prior to CFA injection. Rats were anesthetized with a short term anesthetic and the left knee joint, cavity was injected with CFA for induction of mono-arthritis. On day 3, the back of each animal was shaved. […] Rats received daily treatments for four consecutive days of either vehicle gel, or CBD gel. Gel was applied to the skin in a templated region on the dorsal surface of the rat and rubbed into the skin for 30 sec to ensure complete coverage. The nitrile template was used to ensure specific area reproducibility. The PWL test was conducted 4 h after gel application. Exploratory activity was monitored prior to initial gel application and on the third day post gel application (after 6 h). On the final day of gel application after the body and knee joint parameters were obtained and PWL test was conducted, rats were cuthanized by pentobarbital overdose. Blood samples were obtained for CBD plasma quantification, and tissues (knee joints, dorsal root ganglia, spinal cord, brain) were collected after perfusion.
Half of the treated rats were injected with the CFA in the knee joint. Within each group of rats, half received vehicle gel without CBD and the other half received the gel CBD. Four different doses were tested in the rats, 0.6 mg/d, 3.1 mg/d, 6.2 mg/d, or 62.3 mg/d. […] A two-fold lower dose and a ten-fold lower/higher dose (3.1 mg/d, 0.6 mg/d, and 62.3 mg/d) were also investigated. Area of application, amount of gel, and/or concentration of gel was adjusted to achieve the desired doses.

[5] = system: normal (non-CFA) rats; experiment: Open field exploratory behavioral activity; type: in vivo, Sprague-Dawley rats
Description: Exploratory behavioral activity of the rats was monitored using the Flexfield Animal Activity System (San Diego Instruments; San Diego, Calif.) with a Photobeam Activity System software coupled to a computer according to previously published methods by Zhang et al., (2004) Pharmacol Biochem Behav 77: 145-153. Briefly, six main parameters were recorded: rearing events and rearing time, active time, and resting time, total activity (i.e. number of photobeams disturbed in the x-y-z planes while the rat was moving around in the box or involved in stationary movement such as grooming), and distance traveled. Activity testing was conducted in an isolated, temperature controlled area at similar times daily in order to provide consistent results.
as §1

[6] = Plasma CBD concentration after topical gel application (LC/MS); type: in vivo, Sprague-Dawley rats; details: rats
Description: as §1
50 μL aliquot of plasma collected from cannabidiol dosed rats was added to a siliconized microcentrifuge tube containing 500 μL of 1:1 ACN:ethyl acetate. The plasma/ACN:ethyl acetate sample was vortexed for 30 sec and centrifuged at 10,000×g for 20 min. The supernatant was removed and placed into a clean silanized culture tube and evaporated under nitrogen in a 37° C. water bath. The dried sample was reconstituted with 100 μL of ACN and vortexed for 30 sec, then sonicated for 5 min. […] Standards were prepared by spiking blank plasma samples with respective standard concentrations and extracting the standards similarly to the collected plasma samples.
The LC/MS system used to analyze samples was comprised of a Waters Alliance 2695 pump and autosampler, a Micromass™ ZQ detector, and 996 photodiode array detector with MassLynx™ software (Waters Corp., Milford, Mass.). A Symmetry™ C18 column (150×2.1 mm, 5 μm) with a Sentry Symmetry™ guard column (10×2.1 mm, 3.5 μm) was used with the LC/MS system. The ZQ detector was used with an electrospray ionization (ESI) probe set for single ion monitoring (SIM) for cannabidiol quantification. Analysis was performed in negative mode for m/z 313 [CBD-H]^− (dwell time: 30 sec). Capillary and cone voltage were set at […] and 40 V, respectively. Source block and desolvation temperatures were set at 120° C. and 250° C., respectively. Nitrogen produced from the Nitroflow Lab (Parker Hannifin Corp; Cleveland, Ohio) was used as nebulization and drying gas flow rates of 50 and 450 L/h, respectively. […]

[7] = molecular target: CB2 receptor (Homo sapiens, UniProt P34972); details: cited from earlier work
CB2 receptor, sequence (P34972 whole entry): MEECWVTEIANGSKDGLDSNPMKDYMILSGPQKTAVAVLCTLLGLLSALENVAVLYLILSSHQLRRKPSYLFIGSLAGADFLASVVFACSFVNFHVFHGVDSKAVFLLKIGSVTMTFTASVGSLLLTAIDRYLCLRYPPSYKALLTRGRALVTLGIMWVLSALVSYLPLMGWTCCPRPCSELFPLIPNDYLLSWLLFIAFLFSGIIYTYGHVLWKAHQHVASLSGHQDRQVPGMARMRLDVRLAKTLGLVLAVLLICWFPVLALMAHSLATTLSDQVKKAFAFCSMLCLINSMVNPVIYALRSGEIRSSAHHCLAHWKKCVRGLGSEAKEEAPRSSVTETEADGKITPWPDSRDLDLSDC

[8] = system: collagen-induced arthritis; details: mice, cited from earlier work
[9] = system: CFA intraplantar injection; details: rats, 20 mg/kg oral, 7 consecutive days; cited from earlier work
[10] = system: carrageenan-induced paw edema; details: cited from earlier work
[11] = in vivo; cited from earlier work
[12] = 0.6 mg/d group, after CFA, before CBD gel
[13] = 3.1 mg/d group, after CFA, before CBD gel
[14] = 3.1 mg/d transdermal CBD gel, Post-CBD, day 4
[15] = 6.2 mg/d group, after CFA, before CBD gel
[16] = 62.3 mg/d group, after CFA, before CBD gel
[17] = CFA + CBD group, baseline before CFA and before CBD

## C=C(C)C1CCC(C)=CC1c1c(O)cc(CCCCC)cc1O (stereo not drawn) [CBD, 2-[3-methyl-6-(1-methylethenyl)-2-cyclohexen-1-yl]-5-pentyl-1,3-benzenedi-ol]
[1]; [12]
  Knee joint circumference [mean ± SD]: 7.5 ± 0.3^b cm
[1]; 0.6 mg/d transdermal CBD gel, Post-CBD, four consecutive days (day 4)
  Knee joint circumference [mean ± SD]: 7.0 ± 0.3^b cm
[1]; [13]
  Knee joint circumference [mean ± SD]: 7.4 ± 0.4^b cm
[1]; [14]
  Knee joint circumference [mean ± SD]: 7.1 ± 0.3^b cm
[1]; [15]
  Knee joint circumference [mean ± SD]: 7.2 ± 0.3^b cm
[1]; 6.2 mg/d transdermal CBD gel, Post-CBD, day 4, p<0.05 vs vehicle gel
  Knee joint circumference [mean ± SD]: 6.6±0.2 cm and 6.6 ± 0.2^b* cm
[1]; [16]
  Knee joint circumference [mean ± SD]: 7.2 ± 0.0^a cm
[1]; 62.3 mg/d transdermal CBD gel, Post-CBD, day 4, p<0.05 vs vehicle gel
  Knee joint circumference [mean ± SD]: 6.6±0.1 cm and 6.6 ± 0.1^a* cm
[1]; [17]
  Knee joint circumference [mean ± SD]: 5.7±0.2 cm and 5.7 ± 0.2^c cm
[1]; transdermal gel, no further improvement with 62.3 mg/d
  Optimal treatment dose for knee inflammation: 6.2 mg/day
[2]; [12]
  Knee joint temperature [mean ± SD]: 31.7 ± 1.7^b ° C.
[2]; 0.6 mg/d transdermal CBD gel, Post-CBD, day 4
  Knee joint temperature [mean ± SD]: 31.2 ± 0.7^b ° C.
[2]; [13]
  Knee joint temperature [mean ± SD]: 30.8 ± 0.9^b ° C.
[2]; [14]
  Knee joint temperature [mean ± SD]: 30.6 ± 0.6^b ° C.
[2]; [15]
  Knee joint temperature [mean ± SD]: 32.1 ± 1.8^b ° C.
[2]; 6.2 mg/d transdermal CBD gel, Post-CBD, day 4
  Knee joint temperature [mean ± SD]: 31.7 ± 2.1^b ° C.
[2]; [16]
  Knee joint temperature [mean ± SD]: 34.1 ± 0.8^a ° C.
[2]; 62.3 mg/d transdermal CBD gel, Post-CBD, day 4
  Knee joint temperature [mean ± SD]: 30.2 ± 0.9^a ° C.
[2]; CBD gel doses vs vehicle gel, p>0.05
  Difference in knee joint temperature among the treatment groups: No knee joint temperature differences; also recorded: no significant differences
[2]; [17]
  Knee joint temperature [mean ± SD]: 33.4 ± 0.2^a ° C.
[3]; 0.6 mg/d group
  Spontaneous pain rating scores [mean ± SD]: 4.0 ± 0.0^b
[3]; 3.1 mg/d group
  Spontaneous pain rating scores [mean ± SD]: 4.0 ± 0.0^b
[4]; 6.2 mg/d group
  Paw withdrawal latency (PWL), own baseline score: 10.9 ± 0.3 s
[4]; 62.3 mg/d group
  Paw withdrawal latency (PWL), own baseline score: 9.3 ± 0.3 s
[4]; CFA rats, 0.6 mg/d CBD gel, day 2 of application, 4 h after application
  Paw withdrawal latency (PWL): 7.8 ± 0.5 s
[4]; CFA rats, 0.6 mg/d and 3.1 mg/d CBD, day 4
  Improvement of PWL scores: did not have improved PWL scores
[4]; CFA rats, 3.1 mg/d CBD gel, day 2 of application
  Paw withdrawal latency (PWL): 7.6 ± 0.8 s
[4]; CFA rats, 6.2 mg/d CBD gel, day 2 of application, p<0.05 vs vehicle gel
  Paw withdrawal latency (PWL): 9.2 ± 0.7 s
[4]; CFA rats, 6.2 mg/d CBD gel, day 4
  Paw withdrawal latency (PWL): 9.2 ± 0.3 s
[4]; CFA rats, 6.2 mg/d, 4 h (d 1) post CBD dosing, p<0.05
  Change in PWL vs CFA rats receiving vehicle gel: improvement
[4]; CFA rats, 62.3 mg/d CBD gel, day 2 of application, p<0.05 vs vehicle gel
  Paw withdrawal latency (PWL): 9.1 ± 0.2 s
[4]; CFA rats, 62.3 mg/d CBD gel, day 4
  Paw withdrawal latency (PWL): 9.3 ± 0.2 s
[4]; normal controls, 6.2 mg/d CBD gel, day 4
  Paw withdrawal latency (PWL): 10.6 ± 0.3 s
[4]; normal rats, 0.6 mg/d CBD gel, day 2
  Paw withdrawal latency (PWL): 9.9 ± 0.2 s
[4]; normal rats, 3.1 mg/d CBD gel, day 2
  Paw withdrawal latency (PWL): 9.9 ± 0.3 s
[4]; normal rats, 6.2 mg/d CBD gel, day 2
  Paw withdrawal latency (PWL): 10.1 ± 0.9 s
[4]; normal rats, any CBD dose (0.6, 3.1, 6.2 mg/d)
  Effect on PWL in normal rats: not affected; also recorded: no effect
[5]; 0.6 mg/d CBD gel, post-dose, p<0.05 vs pre-dose
  Distance traveled: 1757.1±299.2 cm
[5]; 0.6 mg/d group, pre-dose
  Distance traveled: 2245.5±367.4 cm
[5]; 3.1 mg/d group, pre-dose
  Rearing events: 284.0±31.1
  Rearing time: 189.1±20.7
[5]; among dose groups and pre- vs post-dose, p>0.05, exception distance traveled at 0.6 mg/d
  Exploratory activity, six parameters (rearing events, rearing time, total beams broken, distance traveled, active time, resting time): No significant (p>0.05) differences
[6]; topical gel 0.6 mg/d, four consecutive days
  Plasma CBD concentration: 3.8 ± 1.4 ng/mL
[6]; topical gel 3.1 mg/d
  Plasma CBD concentration: 17.5 ± 4.4 ng/mL
[6]; topical gel 6.2 mg/d
  Plasma CBD concentration: 33.3 ± 9.7 ng/mL
[6]; topical gel 62.3 mg/d (10% w/w gel), not in linear profile
  Plasma CBD concentration: 1,629.9±379.0 ng/mL
[7]
  Binding affinity for CB2 receptor: little binding affinity
[8]; administered systemically (ip and oral)
  Therapeutic action on established CIA: beneficial therapeutic action
[8]; i.p. (2.5, 5, 10, 20 mg/kg tested)
  Optimal dose for arthritis suppression: 5 mg/kg
[8]; oral (10, 25, 50 mg/kg tested)
  Optimal dose for arthritis suppression: 25 mg/kg
[9]
  Decrease in thermal and mechanical withdrawal latency: 50%
[10]; mice, 5 and 7.5 mg/kg oral, by 6 h
  Effect on hyperalgesia (PWL): eliminated hyperalgesia
[10]; mice, 10, 20 and 40 mg/kg oral, 3 h post carrageenan
  Effect on hyperalgesia (PWL): elimination of hyperalgesia

## CCCCCc1cc(O)c2c(c1)OC(C)(C)[C@@H]1CCC(C)=C[C@@H]21 [THC, Δ^9-tetrahydrocannabinol]
[11]
  Side effects caused: hypothermia and hypomobility
